Key:
Assay type in all cases: cell-based
[1] = system: IL-1 production (IL−1産生); assay: 薬理試験4 IL−1産生抑制作用 (inhibition of IL-1 production, human whole blood); settings: same method as pharmacological test 3 (human whole blood, LPS, 37℃, 24 h)
[2] = system: IL-6 production (IL−6産生); assay: 薬理試験5 IL−6産生抑制作用 (inhibition of IL-6 production, human whole blood); settings: same method as pharmacological test 3 (human whole blood, LPS, 37℃, 24 h)
[3] = system: IFN-γ production (IFN−γ産生); assay: 薬理試験6 IFN−γ産生抑制作用 (inhibition of IFN-γ production, human whole blood); settings: concanavalin A (ConA), 37℃, 48 h, ELISA

IC50 [1]: 80 µM
IC50 [2]: ≥ 100 µM
IC50 [3]: 5 µM
Structure (SMILES): CCOc1ccc(-c2nc(-c3cccc(C(=O)O)n3)cs2)cc1OCC [実施例2]

From patent JP2006083192A, “サイトカイン異常産生又は接着作用の亢進に伴う疾患を予防又は治療するための薬剤” (Otsuka Pharmaceutical Co Ltd, priority 1996, dated 1998)
